Results as given in publication PMC4389225, “Triaminopyrimidine is a fast-killing and long-acting antimalarial clinical candidate” (Nature Communications, 2015).

How the values were obtained:
[1] = Acute anaesthetized guinea pig cardiovascular (CVS) model, compound 12; format: in vivo
Protocol: Male Dunkin Hartley guinea pigs (n=6 per group; 342–401 g; 4–5 weeks old; Charles River Laboratories, L’Arbresle, Cedex) were anaesthetized with sodium pentobarbitone (60 mg kg^−1 intraperitoneally followed by 6 mg kg^−1 h^−1 i.v. (jugular) for maintenance) and mechanically ventilated. Animals were surgically prepared for the measurement of haemodynamic (blood pressure, heart rate and contractility (including left ventricular pressure)) and electrocardiographic (ECG)-derived parameters (QTcB, PR interval and QRS duration). Briefly, catheters were introduced into a carotid artery and a jugular vein for the measurement of arterial blood pressure and administration of the test item, respectively. Needle electrodes were placed subcutaneously in a lead II position for ECG recording. A fluid-filled catheter was introduced into the left ventricle via the opposite carotid artery for left ventricular pressure measurement.
Animals received two consecutive i.v. infusions of either vehicle (group 1; 40% v/v dimethylacetamide/20% v/v polyethylene glycol 400/17% w/v hydroxyl propyl beta cyclodextrin (HPβCD/kleptose) in water for injection) or compound 12 at 10 or 30 mg kg^−1 (group 2). Each infusion lasted for 15 min at a dose volume of 3 ml kg^−1 (rate of 0.2 ml kg^−1 min^−1). Animals were monitored for a further 30-min washout period. Blood samples were taken at 5, 10 and 15 min after the start of each infusion and at 5, 10, 20 and 30 min during the washout phase.
Following a stabilization period, haemodynamic and ECG parameters were measured (using HEM software, version 4.3, Notocord Systems) at 10 and 5 min before administration (mean of measurements obtained at these time points=baseline; T0), and 2.5, 5, 10 and 15 min after the start of each i.v. infusion of compound 12 or vehicle and 5, 10, 20 and 30 min after the end of the second infusion. A detailed description of the model, its background and validation has been described earlier.
All parameters were analysed statistically using SAS software. Baseline values were defined as mean of measurments taken 10 or 5 min before dosing. For each parameter, homogeneity of baseline values (T0) between the two groups were tested using a two-tailed Student’s t-test. Changes from baseline were assessed using a two-way analysis of variance (group and time) with repeated measurements over the time and group × time interaction.
Anaesthetised Guinea Pig Cardiovascular toxicity study for compound 12. Group mean ±SEM data are presented in Supplementary Fig. 16a to 16l. Mean ± standard error plasma exposure data are illustrated in Supplementary Fig. 16m. The mean of the two control recording periods was used as a baseline value. Administration of vehicle produced the expected level of variability in cardiovascular parameters over the time course of this study.
This was considered within acceptable ranges for vehicle data. Actual changes caused by compound 12 were derived by subtracting the effect of the time-matched vehicle data and are discussed using mean % change from baseline values. All findings reported below achieved statistical significance (P < 0.05), unless indicated as a trend. Isolated incidences of statistical significance, that show no relation to compound effects, were not considered of […]
Blood pressure, LVP and heart rate effect: Following i.v. administration of compound 12 at 10 mg/kg, the following observations were noted:
- A 15% decrease in dP/dtmax (an index of cardiac contractility).
As the dose increased to 30 mg/kg, the following effects were observed:
- A 8% decrease in heart rate (HR), - A 10% decrease in left ventricular systolic pressure (LVsys), - A 27% decrease in dP/dtmax.
There was evidence of recovery for dP/dtmax during the 30 minutes wash-out period.
Despite attaining statistical significance, the magnitude of the effects on dP/dtmax at […]

[2] = Blood-plasma ratio, human; format: in vitro ADME
Description: Supplementary Note 5: Prediction of human clearance for compound 12 by IVIVE.
Human clearance (CL) was predicted by in vitro-in vivo extrapolation (IVIVE) from the in vitro Clint in human hepatocytes6. In vitro Clint was scaled to in vivo Clint as follows:
Clint in vivo = Clint in vitro * scaling factors * fublood/fuinc
The liver weights used for scaling were 40, 32 and 24 g/kg body weight in rat, dog and human respectively. Hepatocellularity used for scaling was 163, 169 and 120 (X 106) cells/g liver in rat, dog and human respectively. Free fraction in blood was calculated as fuplasma /Blood:Plasma (BP) ratio. BP ratio and free fraction in the hepatocyte incubation mix, fuinc, were measured in vitro. Slope and intercept from the linear regression analysis of IVIVC for a large number of AstraZeneca compounds was applied for final correction in the scaled in vivo Clint. A well stirred model was used for CL prediction.
Where Qh is the liver blood flow. The values of Qh in rat, dog and human are 72, 55 and 20 mL.min-1kg-1 in rat, dog and human, respectively. In vitro parameters, observed in vivo CL and predicted CL are shown in supplementary Table 10. […]
(also on this page, place not known: in vivo in vivo CLintQ CLintQCL Predicted predicted predicted h h + ×=)
(1 picture or pasted object on this page, not shown here)

In the case of Cc1nc(Nc2ncc(N3CCN(C)[C@H](C)C3)c(Nc3cc(C)n(C)n3)n2)cc(C2CC2)c1F [compound 12, (R)-N2-(4-cyclopropyl-5-fluoro-6-methylpyridin-2-yl)-N4-(1,5-dimethyl-1H-pyrazol-3-yl)-5-(3,4-dimethylpiperazin-1-yl)pyrimidine-2,4-diamine], the “PR interval, QRS duration and QTcB interval” value ([1]; 10 mg/kg i.v.) was “unaffected”, the “decrease in dP/dtmax (index of cardiac contractility)” value ([1]; 10 mg/kg i.v., vehicle-corrected mean % change from baseline) was 15% and the “decrease in heart rate (HR)” value ([1]; 30 mg/kg i.v.) was 8%. For the same compound, the “decrease in left ventricular systolic pressure (LVsys)” value ([1]; 30 mg/kg i.v.) was 10%, the “increase in QTcB” value ([1]; 30 mg/kg i.v.) was 7% and the “decrease in dP/dtmax” value ([1]; 30 mg/kg i.v., vehicle-corrected mean % change from baseline) was 27%. The “A—plasma Cmax free” value ([1]; guinea pig, 10 mg kg^−1 i.v.) was 0.09 µM, the “Safety margin (A/B)-free Cmax” value ([1]; guinea pig, 10 mg kg^−1 i.v.) was 10.3 and the “Summary of clinical signs and effects” value ([1]; guinea pig, 10 mg kg^−1 i.v., NOEL = no observed effect level) was “NOEL”. The “Peak total plasma concentration” value ([1]; guinea pig, 10 mg/kg i.v.) was 1.69 ± 0.15 µmol/L, the “A—plasma Cmax free” value ([1]; guinea pig, 30 mg kg^−1 i.v.) was 0.28 µM and the “Safety margin (A/B)-free Cmax” value ([1]; guinea pig, 30 mg kg^−1 i.v.) was 32.2. The “Summary of clinical signs and effects” value ([1]; guinea pig, 30 mg kg^−1 i.v.) was “Contractility and QTcB effects”, the “Peak total plasma concentration” value ([1]; guinea pig, 30 mg/kg i.v.) was 5.05 ± 0.64 µmol/L and the NOEL ([1]; guinea pig, i.v.) was 10 mg/kg. For the same compound, the “B:P ratio” value [2] was 1.3.
